Experimental data from patent publication US4736057A, “Cyclohexane derivatives” (Imperial Chemical Industries PLC, priority 1983, dated 1988).

Columns and labels:
thromboxane A2 (TXA2) = experiment: rabbit aortal strip model, test (a), using the TXA2 mimetic U46619 as agonist; format: cell-based
Description: (a) The rabbit aortal strip model devised by Piper and Vane (Nature. […]. 223, 29-35) using as agonist the TXA2 mimetic agent known as U46619 (R. L. Jones et alia in "Chemistry, Biochemistry and Pharmacological Activity of Prostanoids", eds. S. M. Roberts and F. Scheinman, at p.211, Pergamon Press, 1979);

[1] = tested on: hypertensive effect of TXA2 mimetic agent U46619; experiment: hypertensive effect of U46619 in anaesthetised rats, test (d); format: in vivo, rats (Alderley Park strain); conditions: Rattus norvegicus, iv; intravenously via the jugular vein, anaesthetised male rats, blood pressure at carotid artery, n=3; read-out: ED50 (dose necessary to produce 50% of the maximum hypertensive effect)
Experimental: (d) Male rats (Alderley Park strain) are anaesthetised with sodium pentobarbital and blood pressure is monitored at the carotid artery. The TXA2 mimetic agent known as U46619 is administered intravenously via the jugular vein and an ED50 (dose necessary to produce 50% of the maximum hypertensive effect) is established (n=3). The ED50 for U46619 is approximately 5 μg/kg. A test compound is then administered either intravenously via the jugular vein or orally via a cannula directly into the stomach and the animal challenged with an ED50 dose of U46619, five minutes after dosing with test compound and then successively every ten minutes until the hypertensive effect of U46619 is no longer blocked.

| SMILES | pA2 (thromboxane A2 (TXA2)) | ED50 [1] [µg/kg] |
| --- | --- | --- |
| O=C(O)CCC/C=C\C[C@@H]1CC[C@H](OCc2ccccc2)C[C@@H]1c1ccccc1 (relative stereo) [Example 16, 5(Z)-7-([1,2,4-cis]-4-benzyloxy-2-phenylcyclohexyl)heptenoic acid] | 5.9 |  |
| CCCCC[C@H](O)/C=C/[C@@H]1[C@@H](C/C=C\CCCC(=O)O)[C@H]2CO[C@@H]1C2 [Example U46619] |  | ~5 |
